Details: Liquid, Vibrating tube method

CCn1cc[n+](C)c1.O=S(=O)([N-]S(=O)(=O)C(F)(F)F)C(F)(F)F
Details	mass density [kg/m3]
283.15 K, 101.33 kPa	1533.48
283.19 K, 1750 kPa	1533.9
283.19 K, 5136 kPa	1536.34
283.19 K, 49993 kPa	1565.54
283.19 K, 60272 kPa	1571.51
283.19 K, 69996 kPa	1577
283.19 K, 80287 kPa	1582.65
283.19 K, 89994 kPa	1587.84
283.2 K, 10046 kPa	1539.78
283.2 K, 29957 kPa	1553.14
283.2 K, 40033 kPa	1559.47
283.21 K, 20030 kPa	1546.57
283.21 K, 100034 kPa	1593.02
293.14 K, 99755 kPa	1584.89
293.15 K, 101.33 kPa	1523.37
293.15 K, 10202 kPa	1530.8
293.15 K, 89934 kPa	1579.84
293.16 K, 20787 kPa	1538.14
293.16 K, 59685 kPa	1562.92
293.16 K, 69993 kPa	1568.91
293.17 K, 1027 kPa	1524.24
293.17 K, 4981 kPa	1527.1
293.17 K, 29994 kPa	1544.31
293.17 K, 49993 kPa	1557.07
293.17 K, 79912 kPa	1574.47
293.19 K, 39872 kPa	1550.73
298.12 K, 19701 kPa	1532.45
298.12 K, 29779 kPa	1539.35
298.13 K, 39926 kPa	1546.05
298.14 K, 1156 kPa	1519.1
298.15 K, 101.33 kPa	1518.34
298.15 K, 49997 kPa	1552.45
298.17 K, 5194 kPa	1522.08
298.18 K, 90001 kPa	1575.41
298.18 K, 99950 kPa	1580.52
298.19 K, 10066 kPa	1525.62
298.19 K, 69997 kPa	1564.42
298.19 K, 79938 kPa	1570
298.2 K, 59613 kPa	1558.32
313.15 K, 101.33 kPa	1503.33
313.15 K, 10156 kPa	1510.84
313.15 K, 29996 kPa	1525.09
313.15 K, 39897 kPa	1531.84
313.15 K, 49994 kPa	1538.48
313.15 K, 60124 kPa	1544.89
313.15 K, 69993 kPa	1550.88
313.16 K, 1963 kPa	1504.67
313.16 K, 19902 kPa	1517.96
313.16 K, 80342 kPa	1556.93
313.16 K, 89994 kPa	1562.32
313.17 K, 5147 kPa	1507.08
313.17 K, 100087 kPa	1567.72
333.13 K, 80064 kPa	1539.77
333.13 K, 89994 kPa	1545.53
333.14 K, 69997 kPa	1533.66
333.14 K, 99911 kPa	1551
333.15 K, 101.33 kPa	1483.53
333.15 K, 60111 kPa	1527.39
333.16 K, 49997 kPa	1520.69
333.17 K, 2359 kPa	1485.34
333.17 K, 5331 kPa	1487.73
333.17 K, 40159 kPa	1513.9
333.18 K, 30001 kPa	1506.61
333.19 K, 9791 kPa	1491.26
333.19 K, 18829 kPa	1498.27
353.15 K, 101.33 kPa	1463.97
353.18 K, 2168 kPa	1465.71
353.18 K, 5223 kPa	1468.32
353.18 K, 69993 kPa	1516.73
353.18 K, 80056 kPa	1523.09
353.18 K, 90001 kPa	1529.06
353.19 K, 9673 kPa	1472.06
353.19 K, 20093 kPa	1480.58
353.19 K, 29997 kPa	1488.37
353.19 K, 39951 kPa	1495.89
353.19 K, 49979 kPa	1503.15
353.19 K, 60184 kPa	1510.23
353.19 K, 99944 kPa	1534.73
363.15 K, 101.33 kPa	1454.28
373.12 K, 724 kPa	1445.01
373.14 K, 4935 kPa	1448.84
373.14 K, 60448 kPa	1493.21
373.14 K, 69979 kPa	1499.69
373.14 K, 79868 kPa	1506.16
373.14 K, 89963 kPa	1512.49
373.14 K, 99920 kPa	1518.52
373.16 K, 30001 kPa	1470.33
373.16 K, 39858 kPa	1478.08
373.16 K, 49997 kPa	1485.67
373.17 K, 10147 kPa	1453.42
373.18 K, 19879 kPa	1461.85

Reference: the NIST ThermoML archive (doi:10.1021/je100945u)
